In the CheMixHub ionic liquid set:

Test: xn = mol fraction of the nth substance listed
Details: for electrical conductivity: 100 kPa

CC[n+]1ccn(C)c1.O=S(=O)([O-])C(F)(F)F + CC1COC(=O)O1
101 kPa
Details | viscosity [mPa·s]
288.15 K, x1 = 0.3005 | 10.78
288.15 K, x1 = 0.3998 | 14.62
288.15 K, x1 = 0.5001 | 18.7
293.15 K, x1 = 0.0999 | 5.28
293.15 K, x1 = 0.8004 | 32.5
298.15 K, x1 = 0.8004 | 27.2
298.15 K, x1 = 0.8998 | 32.5
298.15 K, x1 = 1 | 40.4
303.15 K, x1 = 0.0999 | 3.91
303.15 K, x1 = 0.3998 | 8.9
303.15 K, x1 = 0.6987 | 18.4
303.15 K, x1 = 1 | 34
308.15 K, x1 = 0.5001 | 9.9
313.15 K, x1 = 0.8998 | 20.4
313.15 K, x1 = 1 | 24.9
318.15 K, x1 = 0.1999 | 3.52
318.15 K, x1 = 0.3005 | 4.44
318.15 K, x1 = 0.3998 | 5.86
318.15 K, x1 = 0.5001 | 7.69
318.15 K, x1 = 0.8998 | 17.7
323.15 K, x1 = 0.6987 | 10.72
323.15 K, x1 = 0.8998 | 15.47
328.15 K, x1 = 0.1999 | 2.81
328.15 K, x1 = 0.3005 | 3.48
328.15 K, x1 = 0.3998 | 4.58
328.15 K, x1 = 0.5001 | 6.16
328.15 K, x1 = 0.601 | 7.77
333.15 K, x1 = 0.3005 | 3.14
333.15 K, x1 = 0.6987 | 8.51
333.15 K, x1 = 0.8004 | 10.43
338.15 K, x1 = 0.601 | 6.33
338.15 K, x1 = 0.8004 | 9.21
343.15 K, x1 = 0.0999 | 1.74
343.15 K, x1 = 0.3998 | 3.35
353.15 K, x1 = 0.3005 | 2.29
353.15 K, x1 = 0.8998 | 8.38
353.15 K, x1 = 1 | 9.49

C[n+]1ccn(CCCC#N)c1.O=S(=O)([N-]S(=O)(=O)C(F)(F)F)C(F)(F)F + O=C1CCCO1
electrical conductivity [S/m]
Details | x1 = 0.1003 | x1 = 0.2005 | x1 = 0.3003 | x1 = 0.4005 | x1 = 0.4997 | x1 = 0.6003 | x1 = 0.7001 | x1 = 0.8002 | x1 = 0.9003 | x1 = 1
288.15 K | 0.668 | 0.774 | 0.578 | 0.43 | 0.309 | 0.225 | 0.151 | 0.11 | 0.077 | 0.061
293.15 K | 0.731 | 0.838 | 0.635 | 0.482 | 0.353 | 0.266 | 0.186 | 0.141 | 0.101 | 0.083
298.15 K | 0.794 | 0.908 | 0.696 | 0.54 | 0.405 | 0.312 | 0.226 | 0.176 | 0.132 | 0.112
303.15 K | 0.862 | 0.976 | 0.76 | 0.603 | 0.46 | 0.365 | 0.272 | 0.217 | 0.169 | 0.146
308.15 K | 0.933 | 1.05 | 0.827 | 0.669 | 0.522 | 0.424 | 0.324 | 0.265 | 0.212 | 0.185
313.15 K | 1.01 | 1.122 | 0.897 | 0.741 | 0.59 | 0.487 | 0.383 | 0.319 | 0.262 | 0.231
318.15 K | 1.08 | 1.2 | 0.971 | 0.817 | 0.662 | 0.556 | 0.448 | 0.379 | 0.319 | 0.285
323.15 K | 1.16 | 1.28 | 1.05 | 0.899 | 0.741 | 0.633 | 0.519 | 0.448 | 0.384 | 0.346
328.15 K | 1.242 | 1.36 | 1.128 | 0.987 | 0.825 | 0.714 | 0.599 | 0.521 | 0.455 | 0.414
333.15 K | 1.33 | 1.444 | 1.21 | 1.08 | 0.915 | 0.799 | 0.686 | 0.606 | 0.536 | 0.491
338.15 K | 1.416 | 1.532 | 1.3 | 1.18 | 1.015 | 0.896 | 0.782 | 0.695 | 0.625 | 0.575
343.15 K | 1.508 | 1.622 | 1.39 | 1.28 | 1.115 | 0.996 | 0.884 | 0.793 | 0.719 | 0.669

CCCC[P+](CCCC)(CCCC)CCCC.[Br-] + OCCO
101.3 kPa, x1 = 0.333
Details | viscosity [mPa·s]
293.15 K | 122
323.15 K | 29.9

[Br-].[Li+] + CCCCCC[n+]1ccn(C)c1.N#C[S-] + CN1CCCC1=O
298.15 K, 101 kPa
Details | viscosity [mPa·s]
x2 = 0, x1 = 0.02735 | 2.37
x2 = 0, x1 = 0.05202 | 3.192
x2 = 0, x1 = 0.07626 | 4.329
